Data from PMC9401498 (Clinical Cancer Research, 2021).
“Also recorded” adds a separate entry of the source.

Test system: patients with advanced and/or treatment-refractory solid tumors
Assay: Safety and tolerability: adverse events
Type: in vivo, human
[1] = TID-fasted (n = 32), All grades

## O=C(Cc1cccc(OC(F)(F)F)c1)Nc1ccc(CCCCc2nnc(NC(=O)Cc3ccccn3)s2)nn1 [telaglenastat, Telaglenastat]
17 of 120 patients
  Patients with dose reductions: 14%
50 of 120 patients, primarily due to AEs
  Patients with dose interruptions: 42%
100–800 mg TID-fasted, 600–1,000 mg BID-fed
  Maximum tolerated dose (MTD): not reached; also recorded: not established
BID-fed (n = 88), All grades
  Abdominal distension (treatment-related AE): 2 (2.3) n (%)
  Activated partial thromboplastin time prolonged (treatment-related AE): 2 (2.3) n (%)
  Alanine aminotransferase increased (treatment-related AE): 14 (15.9) n (%)
  Ammonia increased (treatment-related AE): 2 (2.3) n (%)
  Anemia (treatment-related AE): 5 (5.7) n (%)
  Aspartate aminotransferase increased (treatment-related AE): 10 (11.4) n (%)
  Blood alkaline phosphatase increased (treatment-related AE): 6 (6.8) n (%)
  Blood bilirubin increased (treatment-related AE): 3 (3.4) n (%)
  Blood creatinine increased (treatment-related AE): 4 (4.5) n (%)
  Constipation (treatment-related AE): 3 (3.4) n (%)
  Decreased appetite (treatment-related AE): 8 (9.1) n (%)
  Diarrhea (treatment-related AE): 2 (2.3) n (%)
  Dysgeusia (treatment-related AE): 2 (2.3) n (%)
  Dyspepsia (treatment-related AE): 2 (2.3) n (%)
  Fatigue (treatment-related AE): 21 (23.9) n (%)
  Gastroesophageal reflux disease (treatment-related AE): 2 (2.3) n (%)
  Hypomagnesemia (treatment-related AE): 4 (4.5) n (%)
  Hyponatremia (treatment-related AE): 2 (2.3) n (%)
  Nausea (treatment-related AE): 21 (23.9) n (%)
  Neuropathy peripheral (treatment-related AE): 2 (2.3) n (%)
  Patients with ≥1 treatment-emergent AE: 84 (95.5) n (%)
  Patients with ≥1 treatment-related AE: 64 (72.7) n (%)
  Photophobia (treatment-related AE): 12 (13.6) n (%)
  Photopsia (treatment-related AE): 2 (2.3) n (%)
  Thrombocytopenia (treatment-related AE): 4 (4.5) n (%)
  Vision blurred (treatment-related AE): 3 (3.4) n (%)
  Vomiting (treatment-related AE): 5 (5.7) n (%)
  Weight decreased (treatment-related AE): 3 (3.4) n (%)
  γ-Glutamyltransferase increased (treatment-related AE): 7 (8.0) n (%)
BID-fed (n = 88), Grade 3
  Abdominal distension (treatment-related AE): 0 n (%)
  Activated partial thromboplastin time prolonged (treatment-related AE): 0 n (%)
  Alanine aminotransferase increased (treatment-related AE): 2 (2.3) n (%)
  Ammonia increased (treatment-related AE): 0 n (%)
  Anemia (treatment-related AE): 1 (1.1) n (%)
  Aspartate aminotransferase increased (treatment-related AE): 1 (1.1) n (%)
  Blood alkaline phosphatase increased (treatment-related AE): 1 (1.1) n (%)
  Blood bilirubin increased (treatment-related AE): 0 n (%)
  Blood creatinine increased (treatment-related AE): 0 n (%)
  Constipation (treatment-related AE): 0 n (%)
  Decreased appetite (treatment-related AE): 0 n (%)
  Diarrhea (treatment-related AE): 0 n (%)
  Dysgeusia (treatment-related AE): 0 n (%)
  Dyspepsia (treatment-related AE): 0 n (%)
  Fatigue (treatment-related AE): 0 n (%)
  Gastroesophageal reflux disease (treatment-related AE): 0 n (%)
  Hypomagnesemia (treatment-related AE): 0 n (%)
  Hyponatremia (treatment-related AE): 0 n (%)
  Nausea (treatment-related AE): 0 n (%)
  Neuropathy peripheral (treatment-related AE): 0 n (%)
  Patients with ≥1 treatment-emergent AE: 28 (31.8) n (%)
  Patients with ≥1 treatment-related AE: 3 (3.4) n (%)
  Photophobia (treatment-related AE): 0 n (%)
  Photopsia (treatment-related AE): 0 n (%)
  Thrombocytopenia (treatment-related AE): 0 n (%)
  Vision blurred (treatment-related AE): 0 n (%)
  Vomiting (treatment-related AE): 0 n (%)
  Weight decreased (treatment-related AE): 0 n (%)
  γ-Glutamyltransferase increased (treatment-related AE): 2 (2.3) n (%)
BID-fed (n = 88), Grade 4
  Abdominal distension (treatment-related AE): 0 n (%)
  Activated partial thromboplastin time prolonged (treatment-related AE): 0 n (%)
  Alanine aminotransferase increased (treatment-related AE): 0 n (%)
  Ammonia increased (treatment-related AE): 0 n (%)
  Anemia (treatment-related AE): 0 n (%)
  Aspartate aminotransferase increased (treatment-related AE): 0 n (%)
  Blood alkaline phosphatase increased (treatment-related AE): 0 n (%)
  Blood bilirubin increased (treatment-related AE): 0 n (%)
  Blood creatinine increased (treatment-related AE): 0 n (%)
  Constipation (treatment-related AE): 0 n (%)
  Decreased appetite (treatment-related AE): 0 n (%)
  Diarrhea (treatment-related AE): 0 n (%)
  Dysgeusia (treatment-related AE): 0 n (%)
  Dyspepsia (treatment-related AE): 0 n (%)
  Fatigue (treatment-related AE): 0 n (%)
  Gastroesophageal reflux disease (treatment-related AE): 0 n (%)
  Hypomagnesemia (treatment-related AE): 0 n (%)
  Hyponatremia (treatment-related AE): 0 n (%)
  Nausea (treatment-related AE): 0 n (%)
  Neuropathy peripheral (treatment-related AE): 0 n (%)
  Patients with ≥1 treatment-emergent AE: 5 (5.7) n (%)
  Patients with ≥1 treatment-related AE: 0 n (%)
  Photophobia (treatment-related AE): 0 n (%)
  Photopsia (treatment-related AE): 0 n (%)
  Thrombocytopenia (treatment-related AE): 0 n (%)
  Vision blurred (treatment-related AE): 0 n (%)
  Vomiting (treatment-related AE): 0 n (%)
  Weight decreased (treatment-related AE): 0 n (%)
  γ-Glutamyltransferase increased (treatment-related AE): 0 n (%)
BID-fed schedule
  Grade 3/4 ALT increase: 2%
  Grade 3/4 AST increase: 1%
BID-fed, 3/88
  Incidence of treatment-related grade 3/4 AEs: 3%
[1]
  Abdominal distension (treatment-related AE): 0 n (%)
  Activated partial thromboplastin time prolonged (treatment-related AE): 0 n (%)
